Test results as given in ChEMBL document CHEMBL1158316, “Modulation of lipoxygenase activity by bacterial hopanoids” (J Nat Prod, 1997).
The source made the active and inactive calls. The rule behind the calls is not given here.

Key:
[1] = tested on: Glycine max; assay: Inhibition of soybean 15-lipoxygenase assessed as rate of disappearance of dissolved oxygen at 25 uM relative to control; parameters: scale not given: the % may be the effect or the level left
[2] = tested on: Glycine max; assay: Inhibition of soybean 15-lipoxygenase assessed as rate of disappearance of dissolved oxygen at 50 uM relative to control; parameters: scale not given: the % may be the effect or the level left
[3] = tested on: Glycine max; assay: Inhibition of soybean 15-lipoxygenase assessed as rate of disappearance of dissolved oxygen at 6.75 uM relative to control; parameters: scale not given: the % may be the effect or the level left
[4] = tested on: Glycine max; assay: Inhibition of soybean 15-lipoxygenase assessed as rate of disappearance of dissolved oxygen at 12.5 uM relative to control; parameters: scale not given: the % may be the effect or the level left
[5] = tested on: Glycine max; assay: Inhibition of soybean 15-lipoxygenase assessed as rate of disappearance of dissolved oxygen at 100 uM relative to control; parameters: scale not given: the % may be the effect or the level left
[6] = biological target: T1, Polyunsaturated fatty acid 5-lipoxygenase (Homo sapiens) (UniProt P09917); assay: Inhibition of human recombinant 5-lipoxygenase assessed as rate of disappearance of dissolved oxygen at 25 uM relative to control; parameters: scale not given: the % may be the effect or the level left
T1 sequence (whole entry): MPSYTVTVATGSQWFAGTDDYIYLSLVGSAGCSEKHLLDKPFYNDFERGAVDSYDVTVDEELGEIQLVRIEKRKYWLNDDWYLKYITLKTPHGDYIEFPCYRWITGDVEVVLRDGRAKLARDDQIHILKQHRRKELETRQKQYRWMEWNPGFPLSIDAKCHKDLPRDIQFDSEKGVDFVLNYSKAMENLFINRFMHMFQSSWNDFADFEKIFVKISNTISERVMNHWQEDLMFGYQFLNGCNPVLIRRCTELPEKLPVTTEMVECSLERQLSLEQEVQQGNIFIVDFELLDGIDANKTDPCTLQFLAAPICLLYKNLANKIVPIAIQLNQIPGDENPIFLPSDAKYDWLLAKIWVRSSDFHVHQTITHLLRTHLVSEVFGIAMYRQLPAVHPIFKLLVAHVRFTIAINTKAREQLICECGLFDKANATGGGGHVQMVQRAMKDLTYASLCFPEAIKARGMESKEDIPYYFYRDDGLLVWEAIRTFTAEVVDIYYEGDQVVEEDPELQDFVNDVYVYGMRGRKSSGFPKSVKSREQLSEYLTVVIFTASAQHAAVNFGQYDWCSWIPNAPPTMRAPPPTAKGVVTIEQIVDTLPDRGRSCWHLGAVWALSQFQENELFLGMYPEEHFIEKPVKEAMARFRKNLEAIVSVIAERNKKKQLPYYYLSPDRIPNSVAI

[7] = biological target: T1, Polyunsaturated fatty acid 5-lipoxygenase (Homo sapiens); assay: Inhibition of human recombinant 5-lipoxygenase assessed as rate of disappearance of dissolved oxygen at 50 uM relative to control; parameters: scale not given: the % may be the effect or the level left
[8] = Inhibition of cyclooxygenase assessed as rate of disappearance of dissolved oxygen at 25 uM relative to control; parameters: scale not given: the % may be the effect or the level left
[9] = Inhibition of cyclooxygenase assessed as rate of disappearance of dissolved oxygen at 50 uM relative to control; parameters: scale not given: the % may be the effect or the level left
[10] = (§1) Inhibition of soybean 15-lipoxygenase; parameters: species or system Glycine max
[11] = tested on: Glycine max; assay: as §1
[12] = Inhibition of cyclooxygenase assessed as rate of disappearance of dissolved oxygen at 2.4 uM relative to control; parameters: scale not given: the % may be the effect or the level left

Activity [1] [%] | Compound | Activity [2] [%] | Activity [6] [%] | further results
172 | C[C@H](CC[C@@H](O)[C@@H](O)[C@@H](O)CO[C@@H]1O[C@H](CO)[C@@H](O)[C@H](O)[C@H]1N)[C@H]1CC[C@]2(C)[C@H]3CC[C@@H]4[C@@]5(C)CCCC(C)(C)[C@@H]5CC[C@@]4(C)[C@]3(C)CC[C@@H]12 | 188 | – | –
151 | C[C@H](CC[C@@H](O)[C@@H](O)[C@@H](O)CO[C@H]1[C@H](N)[C@@H](O)[C@H](O)[C@@]1(O)CO)[C@H]1CC[C@]2(C)[C@H]3CC[C@@H]4[C@@]5(C)CCCC(C)(C)[C@@H]5CC[C@@]4(C)[C@]3(C)CC[C@@H]12 | 250 | – | –
34 | O=C1CCN(c2ccccc2)N1 | – | 55 | –
– | COc1ccc2c(c1)c(CC(=O)O)c(C)n2C(=O)c1ccc(Cl)cc1 | – | – | Activity [12]: 7%

Compound | Activity [1] [%] | Activity [2] [%] | Activity [6] [%] | further results
C[C@H](CC[C@@H](O)[C@@H](O)[C@@H](O)CO)[C@H]1CC[C@]2(C)[C@H]3CC[C@@H]4[C@@]5(C)CCCC(C)(C)[C@@H]5CC[C@@]4(C)[C@]3(C)CC[C@@H]12 [TETRAHYDROXYBACTERIOHOPANE] | 15 | 4 | 98 | Activity [3]: 68%; Activity [4]: 48%; Activity [5]: 11%; Activity [7]: 97%; Activity [8]: 102%; Activity [9]: 103%; IC50 [10]: 10 µM
CC(=O)OC[C@H](OC(C)=O)[C@H](OC(C)=O)[C@@H](CC[C@@H](C)[C@H]1CC[C@]2(C)[C@H]3CC[C@@H]4[C@@]5(C)CCCC(C)(C)[C@@H]5CC[C@@]4(C)[C@]3(C)CC[C@@H]12)OC(C)=O | 89 | 114 | – | Activity [11]: inactive
